Measurements as given in patent US10413520B2, “Oral pharmacological composition including 5-{4-(amino sulfonyl)phenyl}-2,2-dimethyl-4-(3-fluorophenyl)-3(2H)-furanone having crystalline structure with excellent stability” (CRYSTALGENOMICS, INC., priority 2014, dated 2019).
Read-outs that look alike come from different tables or passages of the source. Blank lines part the entries; values can stand above or below the molecule they belong to.

Key:
[1] = Particle size analysis by laser diffraction; type: physicochemical; settings: dry module, 2 bar
Experimental: The particle sizes of the crystalline form of Comparative Examples 1 and 2 and Example 39 were analyzed using a laser diffraction-based particle size analyzer (Mastersizer 2000®, Malvern). After each sample was fed into a dry module (Scirocco 2000®, Malvern) at a pressure of 2 bar, the 50% volume particle diameter (d(0.5)) and 90% volume particle diameter (d(0.9)) of the particles were measured.

[2] = Solubility test in solvents, up to 200 vol (Table 1); type: physicochemical; settings: organic solvent or mixture, thermodynamic from solid, about 5 mg compound, solvent named in the row (c1)
Text: Then, the solvents were evaporated at room temperature for drying and XRPD patterns of the obtained dried materials were confirmed.

[3] = Light stability of crystalline form A in capsules; type: physicochemical; settings: for Amounts of related substances (each) / Amounts of related substances (total) / Appearance / Content / Peak retention time confirmation: PTP, light stress (white and UV florescent lamp)
Experimental: (§1) The crystalline form A was filled in a hard capsule (2 mg per capsule) and stored under the light stress conditions shown in Table 11. Thereafter, the appearance of the crystalline form A, the retention time of the major peak, the amounts (%) of related substances, and the compound content were analyzed.

[4] = Dissolution rates of crystalline form with different particle sizes; type: physicochemical; settings: 2 mg per hard capsule, 900 ml pH 1.2 and pH 6.8 solutions, 100 rpm, 37±0.5° C., 3 hr
Experimental: In this example, the dissolution rates of the crystalline form with different particle sizes were examined. The particles of Comparative Examples 1 and 2 and Example 39 were filled in different hard capsules (2 mg per capsule) and were then eluted in 900 ml of a pH 1.2 solution and 900 ml of a pH 6.8 solution at a revolution number of 100 rpm and a temperature of 37±0.5° C. for 3 hr. The eluted particles were analyzed under the same HPLC conditions as described in Test Example 1.

[5] = Temperature stability of crystalline form A in capsules; type: physicochemical; settings: PTP, 60 ± 5% RH
Experimental: The retention time of the major peak, the amounts of related substances, and the compound content were analyzed by HPLC under the following conditions.
<HPLC Conditions for Analysis of Related Substances>
Column: Hypurity C18, 250×4.6 mm, […] or its equivalent column
Detector: UV absorption spectrometer (measured at 241 nm)
(§2) Column temperature: 30° C.
Mobile phase: A—acetonitrile, B—0.1% v/v trifluoroacetic acid (TFA) in water
<HPLC Conditions for Analysis of the Compound Content>
(§3) Detector: UV absorption spectrometer (measured at 325 nm)
(§4) Mobile phase: A—acetonitrile, B—water, A:B=60:40, v/v %
Diluent: water:acetonitrile=50:50, v/v %

[6] = Humidity stability of crystalline form A in capsules; type: physicochemical; settings: PTP, 25 ± 2° C., 90 ± 5% RH
Experimental: as §1, with “severe humidity” for “light stress”, “10.” for “11.”

[7] = Room temperature storage of anhydrous form; type: physicochemical; settings: stored at room temperature for a long period
Experimental: Then, about 18 g of the compound was dissolved in 200 mL of acetone. The completely dissolved solution was vacuum dried at 40° C. using a rotary evaporator (Buchi Rota Vapour R200). The compound thus obtained was a sponge-like solid. When the compound was stored at room temperature for a long period, the structure of the crystalline form A was gradually formed, and related substances were created due to hygroscopic property.

[8] = Dissolution rates of crystalline forms in hard capsules; type: physicochemical; settings: 900 ml pH 1.2 solution, 50 and 100 rpm, 37±0.5° C., 2 hr
Experimental: In this example, the dissolution rates of the crystalline forms of the compound of Formula 1 were examined. Specifically, each of the crystalline form A of Preparative Example 5 and the crystalline form G of Preparative Example 6 was filled in hard capsules and was then eluted in 900 ml of a pH 1.2 solution at different revolution numbers of 50 and 100 rpm and a temperature of 37±0.5° C. for 2 hr. The eluted particles were analyzed under the following HPLC conditions:
Column: Hypurity C18, 250×4.6 mm, 5 μm or its equivalent column
as §3, §2, §4

[9] = Storage stability of crystalline forms (appearance, XRD, related substances); type: physicochemical; settings: 25° C./97% RH and 40° C./75% RH, 7 days; for State of crystalline form (XRD): hard capsules; for Appearance and crystalline structures / Creation of related substances: uncapped glass vial
Experimental: Additionally, the crystalline forms of the compound of Formula 1 were evaluated for storage stability. The crystalline form A of Preparative […] conditions (25° C./97% RH) and accelerated storage conditions (40° C./75% RH) for 7 days. X-ray diffraction analysis was performed in accordance with the same method as described in Preparative Examples 5 and 6.

[10] = Related substance creation under stress conditions (HPLC); type: physicochemical; settings: stress conditions 60±2° C. and 85±5% (RH), sealed glass vial; for Total related substance: after 4 week storage
Experimental: Each raw material was sealed in a glass vial and sampled at different elapsed time. The samples were evaluated by HPLC analysis. […] Based on the above results, the crystalline forms A and G were selected and used for the study for manufacturing an oral pharmacological composition.

[11] = Pharmacokinetic properties of crystalline forms after oral administration; type: in vivo; settings: single oral dose, male SD rats; for AUC / Cmax / Tmax: about 5 mg in 10 mL 0.5% methylcellulose, 10 mL/Kg
Experimental: The pharmacokinetic properties of the different crystalline forms of the compound of Formula 1 were analyzed in vivo. About 5 mg of each of the crystalline form A of Preparative Example 5 and the crystalline form G of Preparative Example 6 was suspended in 10 mL of a 0.5% methylcellulose solution to produce a formulation for oral use. Then, 6 week old male SD rats (Orient Bio. Inc., Korea) were divided into two groups. About 3 mL (10 mL/Kg) of the oral formulation was once administered orally to each rat and blood samples were drawn from the rat at predetermined intervals of 0.167, 0.5, 1.0, 2.0, 4.0, 6.0, 8.0, and 24.0 hr. The blood samples were used to analyze the pharmacokinetic parameters of the crystalline form.
The pharmacokinetic parameters of the crystalline forms were analyzed using Waters Quattro premier XE 2795 Alliance HT (Waters) under the following conditions: flow rate=0.25 ml/min, column temperature=40° C., injection volume=7 μL, and mobile phase=A: 1 mM ammonium acetate & 0.1% acetic acid (35%), B: ACN (65%). Linearity was established with 8 different standard concentrations.
The oral formulations including the compound of Preparative Example 5 and the compound of Preparative Example 6, respectively, were administered to the different rats.

[12] = Solubility test in 28 solvents at r.t. and 50° C. (Table 2)
Experimental: When dissolution was incomplete during the experiment, the solution was maturated by repeatedly heating to 50° C. and then cooling to room temperature 8 times for 24 hr in an incubation chamber. After maturation, the solvent was dried at room temperature.
During the experiment, the completely dissolved solution was stored under a cold condition (4° C.) for 24 hr to allow crystal formation, recovered and dried at room temperature. Then XRPD analysis was performed.

- Time until related substances exceeded the criteria ([3]; light stress storage conditions): ≤ 7 days
- State of crystalline form (XRD) [9]: maintained stable
- Appearance and crystalline structures [9]: remained unchanged
- Creation of related substances [9]: rarely observed
- Total related substance [10]: about 0.1%
- AUC ([11]; male, SD, rat, blood, po, 5 mg, read-out: AUC): 2320 ng·h/mL
- Cmax ([11]; male, SD, rat, blood, po, 5 mg, read-out: Cmax): 751 ng/mL
- Tmax ([11]; male, SD, rat, blood, po, 5 mg, read-out: Tmax): 30 min
SMILES: CC1(C)OC(c2ccc(S(N)(=O)=O)cc2)=C(c2cccc(F)c2)C1=O [Preparative Example 5]
- Dissolution rate [8]: higher dissolution rates than the crystalline form G
- In vivo dissolution rates (blood levels over time) [11]: higher in vivo dissolution rates than the crystalline form G of Preparative Example 6

- State of crystalline form (XRD) [9]: maintained stable
- Appearance and crystalline structures [9]: remained unchanged
- Creation of related substances [9]: rarely observed
- Total related substance [10]: about 0.1%
- AUC [11]: 2416.835 ng·h/mL
- Cmax [11]: 513.614 ng/mL
- Tmax [11]: 60 min
SMILES: CC1(C)OC(c2ccc(S(N)(=O)=O)cc2)=C(c2cccc(F)c2)C1=O [Preparative Example 6]

- Dissolution in solvent volume up to 100 times, heated up to 50° C. ([12]; IPA, Toluene, TBME, Diethyl ether, Heptane, water): not dissolved
- Dissolution in solvent volume 10 times the raw material ([12]; acetone, 2-butanone, THF, DMSO, Methylpyrrolidine, Dioxane, acetonitrile aqueous solution, NMP, 1-methoxy-IPA): dissolved
- Dissolution in solvent volume 20 times to 40 times the raw material ([12]; ethyl acetate, acetonitrile, MIBK, DCM, Nitromethane): dissolved
SMILES: CC1(C)OC(c2ccc(S(N)(=O)=O)cc2)=C(c2cccc(F)c2)C1=O [compound of Formula 1]

- Level of total related substance over time [10]: rapidly increased
SMILES: CC1(C)OC(c2ccc(S(N)(=O)=O)cc2)=C(c2cccc(F)c2)C1=O [crystalline form B]

Continued, molecule first:

SMILES: CC1(C)OC(c2ccc(S(N)(=O)=O)cc2)=C(c2cccc(F)c2)C1=O [Comparative Example 1]
- Particle size d(0.1) [1]: 40.55 μm
- Particle size d(0.5), 50% volume particle diameter [1]: 136.49 μm
- Particle size d(0.9), 90% volume particle diameter [1]: 527.04 μm

SMILES: CC1(C)OC(c2ccc(S(N)(=O)=O)cc2)=C(c2cccc(F)c2)C1=O [Comparative Example 2]
- Particle size d(0.1) [1]: 5.15 μm
- Particle size d(0.5), 50% volume particle diameter [1]: 32.17 μm
- Particle size d(0.9), 90% volume particle diameter [1]: 83.54 μm

SMILES: CC1(C)OC(c2ccc(S(N)(=O)=O)cc2)=C(c2cccc(F)c2)C1=O [Example 4]
- solubility ([2]; read-out: Solubility at 100 vol (500 uL)): > 10000 µg/mL

SMILES: CC1(C)OC(c2ccc(S(N)(=O)=O)cc2)=C(c2cccc(F)c2)C1=O [Example 5]
- solubility ([2]; read-out: Solubility at 200 vol (1000 uL)): < 5000 µg/mL

SMILES: CC1(C)OC(c2ccc(S(N)(=O)=O)cc2)=C(c2cccc(F)c2)C1=O [Example 39]
- Amounts of related substances (each) ([3]; 1 week): 1.7%
- Amounts of related substances (total) ([3]; 1 week): 3.0%
- Appearance ([3]; 1 week): Unchanged
- Content ([3]; 1 week): 103.4%
- Peak retention time confirmation ([3]; 1 week): The same
- Amounts of related substances (each) ([3]; 2 weeks): 2.1%
- Amounts of related substances (total) ([3]; 2 weeks): 3.7%
- Appearance ([3]; 2 weeks): Unchanged
- Content ([3]; 2 weeks): 103.1%
- Peak retention time confirmation ([3]; 2 weeks): The same
- Amounts of related substances (each) ([3]; 4 weeks): 2.3%
- Amounts of related substances (total) ([3]; 4 weeks): 4.1%
- Appearance ([3]; 4 weeks): Unchanged
- Content ([3]; 4 weeks): 99.1%
- Peak retention time confirmation ([3]; 4 weeks): The same
- Dissolution rate [4]: higher dissolution rates than the particles of Comparative Examples 1 and 2
- Particle size d(0.1) [1]: 1.75 μm
- Particle size d(0.5), 50% volume particle diameter [1]: 5.98 μm
- Particle size d(0.9), 90% volume particle diameter [1]: 15.23 μm
- Amounts of related substances (each) ([5]; 60 ± 2° C., 24 hr): 0.0%,
- Amounts of related substances (total) ([5]; 60 ± 2° C., 24 hr): 0.0%
- Appearance ([5]; 60 ± 2° C., 24 hr): Unchanged
- Content ([5]; 60 ± 2° C., 24 hr): 103.0%
- Peak retention time confirmation ([5]; 60 ± 2° C., 24 hr): The same
- Amounts of related substances (each) ([5]; 80 ± 2° C., 24 hr): 0.0%,
- Amounts of related substances (total) ([5]; 80 ± 2° C., 24 hr): 0.0%
- Appearance ([5]; 80 ± 2° C., 24 hr): Unchanged
- Content ([5]; 80 ± 2° C., 24 hr): 101.5%
- Peak retention time confirmation ([5]; 80 ± 2° C., 24 hr): The same
- Amounts of related substances (each) ([5]; 90 ± 2° C., 24 hr): 0.0%,
- Amounts of related substances (total) ([5]; 90 ± 2° C., 24 hr): 0.0%
- Appearance ([5]; 90 ± 2° C., 24 hr): Unchanged
- Content ([5]; 90 ± 2° C., 24 hr): 101.8%
- Peak retention time confirmation ([5]; 90 ± 2° C., 24 hr): The same
- Amounts of related substances (each) ([5]; 90 ± 2° C., 72 hr): 0.1%,
- Amounts of related substances (total) ([5]; 90 ± 2° C., 72 hr): 0.1%
- Appearance ([5]; 90 ± 2° C., 72 hr): Unchanged
- Content ([5]; 90 ± 2° C., 72 hr): 101.1%
- Peak retention time confirmation ([5]; 90 ± 2° C., 72 hr): The same
- Amounts of related substances (each) ([6]; 1 week): 0.1%
- Amounts of related substances (total) ([6]; 1 week): 0.1%,
- Appearance ([6]; 1 week): Unchanged
- Content ([6]; 1 week): 103.1%
- Peak retention time confirmation ([6]; 1 week): The same
- Amounts of related substances (each) ([6]; 2 weeks): 0.1%, 0.1%
- Amounts of related substances (total) ([6]; 2 weeks): 0.1%, 0.1%
- Appearance ([6]; 2 weeks): Unchanged
- Content ([6]; 2 weeks): 103.1%
- Peak retention time confirmation ([6]; 2 weeks): The same
- Amounts of related substances (each) ([6]; 4 weeks): 0.1%,
- Amounts of related substances (total) ([6]; 4 weeks): 0.1%
- Appearance ([6]; 4 weeks): Unchanged
- Content ([6]; 4 weeks): 101.2%
- Peak retention time confirmation ([6]; 4 weeks): The same

SMILES: CC1(C)OC(c2ccc(S(N)(=O)=O)cc2)=C(c2cccc(F)c2)C1=O [Preparation Example 2]
- Physicochemical stability [7]: physicochemically unstable
